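Five compound concentrations were applied to cells in 96-well plates for 48 hours; endpoints were derived by simple linear interpolation of the resulting dose-response curve. Here, GI50 denotes the concentration required for 50% inhibition of growth.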 Active and inactive are the calls of the source. No stated cut-off is given here; in the data, active = GI50 up to about 1.1 µM and inactive = higher.
Key:
Assay in all cases: inhibition of tumour cell growth, NCI panel, 48 h
SF-268 = test system: SF-268
HL-60 = test system: HL-60
SF-295 = test system: SF-295
DU-145 = test system: DU-145
NCI-H23 = test system: NCI-H23
MDA-N = test system: MDA-N
MDA-MB-435 = test system: MDA-MB-435
NCI-H460 = test system: NCI-H460
SK-OV-3 = test system: SK-OV-3
HOP-62 = test system: HOP-62
Malme-3M = test system: Malme-3M
EKVX = test system: EKVX
RXF 393 = test system: RXF 393
SNB-19 = test system: SNB-19
COLO 205 = test system: COLO 205
HCT-15 = test system: HCT-15
RPMI-8226 = test system: RPMI-8226
T47D = test system: T47D
K562 = test system: K562
SR = test system: SR

Structure (SMILES) | GI50 (SF-268) | GI50 (HL-60) | GI50 (SF-295) | GI50 (DU-145) | GI50 (NCI-H23) | GI50 (MDA-N) | GI50 (MDA-MB-435) | GI50 (NCI-H460) | GI50 (SK-OV-3) | GI50 (HOP-62) | GI50 (Malme-3M) | GI50 (EKVX) | GI50 (RXF 393) | GI50 (SNB-19) | GI50 (COLO 205) | GI50 (HCT-15) [µM] | GI50 (RPMI-8226) | GI50 (T47D) | GI50 (K562) | GI50 (SR)
CC(C)CNCCc1ccccn1 | > 100 µM (inactive) | > 100 µM (inactive) | > 100 µM (inactive) | > 100 µM (inactive) | > 100 µM (inactive) | > 100 µM (inactive) | > 100 µM (inactive) | > 100 µM (inactive) | > 100 µM (inactive) | > 100 µM (inactive) | > 100 µM (inactive) | > 100 µM (inactive) | > 100 µM (inactive) | > 100 µM (inactive) | > 100 µM (inactive) | > 100 |  |  |  | 
CC(=O)O[C@@H]1[C@H]2O[C@H]2[C@H]2O[C@@]2(COC(=O)c2ccccc2)[C@H]1OC(C)=O | > 100 µM (inactive) | > 100 µM (inactive) | > 100 µM (inactive) | 73.5 µM (inactive) | > 100 µM (inactive) | > 100 µM (inactive) | > 100 µM (inactive) | 34.2 µM (inactive) | > 100 µM (inactive) |  | > 100 µM (inactive) | > 100 µM (inactive) |  | > 100 µM (inactive) | > 100 µM (inactive) | > 100 | > 100 µM (inactive) | > 100 µM (inactive) | > 100 µM (inactive) | 
COc1ccc(Nc2nc3cc(C(F)(F)F)ccc3nc2C(=O)O)cc1OC | 42.8 µM (inactive) | 28.4 µM (inactive) | 10.5 µM (inactive) | 15.4 µM (inactive) | 26.4 µM (inactive) |  | 33.8 µM (inactive) | 37.6 µM (inactive) |  | 35 µM (inactive) | 42.9 µM (inactive) | 30.8 µM (inactive) | 23.3 µM (inactive) | 24 µM (inactive) | 27.9 µM (inactive) | 35.6 | 25.8 µM (inactive) | 27.7 µM (inactive) | 28.6 µM (inactive) | 25.1 µM (inactive)
COc1c2c(cc3c1C(=O)Cc1ccc4c(c1CN(C)CC3)OCO4)OCO2 | > 100 µM (inactive) | 30.1 µM (inactive) | > 100 µM (inactive) |  | > 100 µM (inactive) |  |  | 67.3 µM (inactive) | > 100 µM (inactive) | > 100 µM (inactive) | > 100 µM (inactive) | > 100 µM (inactive) | > 100 µM (inactive) | > 100 µM (inactive) | 43.1 µM (inactive) | > 100 | 85.3 µM (inactive) |  | 28.8 µM (inactive) | 43.2 µM (inactive)
Cc1ccc(C(=O)N/N=C(\N=N\c2ccccc2C(=O)O)c2ccc(N(C)C)cc2)cc1 | > 100 µM (inactive) | 53.5 µM (inactive) | 41.6 µM (inactive) | > 10 µM (inactive) | > 100 µM (inactive) | 19 µM (inactive) | 22.9 µM (inactive) | 72.6 µM (inactive) |  |  |  | 75.2 µM (inactive) |  | 55.3 µM (inactive) | 35.2 µM (inactive) | 64.7 | > 100 µM (inactive) |  | 35.8 µM (inactive) | 
COc1ccccc1/N=C1\SCCN1C(=S)Nc1ccc(S(=O)(=O)/N=C/N(C)C)cc1 | 22.1 µM (inactive) | 27.4 µM (inactive) | > 100 µM (inactive) | 29.6 µM (inactive) | 27.1 µM (inactive) | 26.5 µM (inactive) | 24.9 µM (inactive) | > 100 µM (inactive) | > 100 µM (inactive) | > 100 µM (inactive) |  | 20.9 µM (inactive) | 16.6 µM (inactive) | > 100 µM (inactive) | 28.6 µM (inactive) | 31.6 | 21.6 µM (inactive) | 25.8 µM (inactive) | 39.6 µM (inactive) | 
CC(C1CCCC1=O)C1CCCC1=O (stereo not drawn) | > 100 µM (inactive) | > 100 µM (inactive) | > 100 µM (inactive) | > 100 µM (inactive) | > 100 µM (inactive) | > 100 µM (inactive) |  | > 100 µM (inactive) | > 100 µM (inactive) | > 100 µM (inactive) | > 100 µM (inactive) | > 100 µM (inactive) | > 100 µM (inactive) | > 100 µM (inactive) | > 100 µM (inactive) | > 100 |  | > 100 µM (inactive) | > 100 µM (inactive) | > 100 µM (inactive)
CN/N=C(\C)CC(=O)Nc1cccc(Cl)c1C | > 100 µM (inactive) | > 100 µM (inactive) | > 100 µM (inactive) |  | > 100 µM (inactive) |  |  | > 100 µM (inactive) | > 100 µM (inactive) | > 100 µM (inactive) | > 100 µM (inactive) | > 100 µM (inactive) | > 100 µM (inactive) | > 100 µM (inactive) | > 100 µM (inactive) | > 100 | > 100 µM (inactive) |  | > 100 µM (inactive) | 28.6 µM (inactive)

Reference: ChEMBL document CHEMBL1201862, “PubChem BioAssay data set” (2004)
